In patent US20210267203A1, “PESTICIDALLY ACTIVE AZOLE-AMIDE COMPOUNDS” (SYNGENTA PARTICIPATIONS AG, priority 2018, published 2021):

Experiments:
Type in all cases: in vivo
[1] = system: Plutella xylostella (Diamondback Moth); test: Example B14: activity against Plutella xylostella (diamondback moth), 96-well artificial diet; conditions: 216 h, application rate 500 ppm, 9 days after infestation
Protocol: Example B14: Activity Against Plutella xylostella (Diamondback Moth)
96-well microtiter plates containing artificial diet were treated with aqueous test solutions, prepared from 10,000 ppm DMSO stock solutions, by a liquid handling robot. After drying, eggs (30 per well) were infested onto a netted lid which was suspended above the diet. The eggs hatch and L1 larvae move down to the diet. The samples were assessed for mortality 9 days after infestation.
The following compounds gave an effect of at least 80% average mortality at an application rate of 500 ppm: […]

[2] = system: Plutella xylostella (Diamond Back Moth); test: Example B5: Plutella xylostella (diamond back moth), artificial diet, 24-well, eggs; conditions: 192 h, application rate 200 ppm, 8 days after infestation, read-out: effect in at least one of the two categories (mortality or growth inhibition)
Protocol: Example B5: Plutella xylostella (Diamond Back Moth)
24-well microtiter plates with artificial diet were treated with aqueous test solutions prepared from 10,000 ppm DMSO stock solutions by pipetting. After drying, Plutella eggs were pipetted through a plastic stencil onto a gel blotting paper and the plate was closed with it. The samples were assessed for mortality and growth inhibition in comparison to untreated samples 8 days after infestation. The following compounds gave an effect of at least 80% in at least one of the two categories (mortality or growth inhibition) at an application rate of 200 ppm: […]

[3] = system: Diabrotica Balteata (Corn Root Worm); test: Example B1: Diabrotica balteata (corn root worm), maize sprouts sprayed, L2 larvae; conditions: 96 h, application rate 200 ppm, 4 days after infestation, read-out: effect in at least one of the two categories (mortality or growth inhibition)
Protocol: Example B1: Diabrotica Balteata (Corn Root Worm)
Maize sprouts placed onto an agar layer in 24-well microtiter plates were treated with aqueous test solutions prepared from 10,000 ppm DMSO stock solutions by spraying. After drying, the plates were infested with L2 larvae (6 to 10 per well). The samples were assessed for mortality and growth inhibition in comparison to untreated samples 4 days after infestation.
The following compounds gave an effect of at least 80% in at least one of the two categories (mortality or growth inhibition) at an application rate of 200 ppm: […]

SMILES	mortality at 500 ppm [1] [%]	percent effect (mortality or growth inhibition) at 200 ppm [2] [%]	percent effect (mortality or growth inhibition) at 200 ppm [3] [%]
CC(c1ncnn1-c1ncccn1)N(CC1CC1)C(=O)c1ccc(-n2ccc(C(F)(F)F)n2)cc1 (stereo not drawn) [P1, N-(cyclopropylmethyl)-N-[1-(2-pyrimidin-2-yl-1,2,4-triazol-3-yl)ethyl]-4-[3-(trifluoromethyl)pyrazol-1-yl]benzamide]	≥ 80	–	–
CC(c1ncnn1-c1ncccn1)N(CC1CC1)C(=O)c1ccc(C2(C#N)CC2)cc1 (stereo not drawn) [P2, 4-(1-cyanocyclopropyl)-N-(cyclopropylmethyl)-N-[1-(2-pyrimidin-2-yl-1,2,4-triazol-3-yl)ethyl]benzamide]	≥ 80	–	–
CC(c1ncnn1-c1ncccn1)N(CC1CC1)C(=O)c1cccc(-c2ccc(C(F)(F)F)cc2)c1 (stereo not drawn) [P3, N-(cyclopropylmethyl)-N-[1-(2-pyrimidin-2-yl-1,2,4-triazol-3-yl)ethyl]-3-[4-(trifluoromethyl)phenyl)benzamide]	≥ 80	≥ 80	–
CC(c1ncnn1-c1ncccn1)N(CC1CC1)C(=O)c1cccc(-c2ccc(F)cc2)c1 (stereo not drawn) [P4, N-(cyclopropylmethyl)-3-(4-fluorophenyl)-N-[1-(2-pyrimidin-2-yl-1,2,4-triazol-3-yl)ethyl]benzamide]	≥ 80	–	–
CC(c1ncnn1-c1ncccn1)N(CC1CC1)C(=O)c1ccc(-c2ccc(F)cc2)cc1 (stereo not drawn) [P5, N-(cyclopropylmethyl)-4-(4-fluorophenyl)-N-[1-(2-pyrimidin-2-yl-1,2,4-triazol-3-yl)ethyl]benzamide]	≥ 80	≥ 80	–
CC(c1ncnn1-c1ncccn1)N(CC1CC1)C(=O)c1cncc(-c2cccc(C(F)(F)F)c2)c1 (stereo not drawn) [P8, N-(cyclopropylmethyl)-N-[1-(2-pyrimidin-2-yl-1,2,4-triazol-3-yl)ethyl]-5-[3-(trifluoromethyl)phenyl]pyridine-3-carboxamide]	–	≥ 80	–
CC(c1ncnn1-c1ncccn1)N(CC1CC1)C(=O)c1cc(-c2cccc(C(F)(F)F)c2)ccn1 (stereo not drawn) [P9, N-(cyclopropylmethyl)-N-[1-(2-pyrimidin-2-yl-1,2,4-triazol-3-yl)ethyl]-4-[3-(trifluoromethyl)phenyl]pyridine-2-carboxamide]	≥ 80	≥ 80	–
CC(c1ncnn1-c1ncccn1)N(CC1CC1)C(=O)c1ccc(Oc2ccc(C(F)(F)F)cc2)cc1 (stereo not drawn) [P16, N-(cyclopropylmethyl)-N-[1-(2-pyrimidin-2-yl-1,2,4-triazol-3-yl)ethyl]-4-[4-(trifluoromethyl)phenoxy]benzamide]	–	–	≥ 80
CC(c1ncnn1-c1ncccn1)N(CC1CC1)C(=O)c1cc(Cl)cc(C(C)(C)C#N)n1 (stereo not drawn) [P28, 4-chloro-6-(1-cyano-1-methyl-ethyl)-N-(cyclopropylmethyl)-N-[1-(2-pyrimidin-2-yl-1,2,4-triazol-3-yl)ethyl]pyridine-2-carboxamide]	≥ 80	–	–
CC(c1ncnn1-c1ncccn1)N(CC1CC1)C(=O)c1cc(OC2CCC2)cc(C(F)(F)F)c1 (stereo not drawn) [P48, 3-(cyclobutoxy)-N-(cyclopropylmethyl)-N-[1-(2-pyrimidin-2-yl-1,2,4-triazol-3-yl)ethyl]-5-(trifluoromethyl)benzamide]	≥ 80	–	–
CC(NC(=O)c1cc(-c2cncc(Cl)c2)cc(C(F)(F)F)c1)c1ncnn1-c1ncccn1 (stereo not drawn) [P63, 3-(5-chloro-3-pyridyl)-N-[1-(2-pyrimidin-2-yl-1,2,4-triazol-3-yl)ethyl]-5-(trifluoromethyl)benzamide]	–	≥ 80	–
CC(c1ncnn1-c1ncccn1)N(CC1CC1)C(=O)c1cc(C(F)(F)F)cc(C(F)(F)C2CCC2)c1 (stereo not drawn) [P71, 3-[cyclobutyl(difluoro)methyl]-N-(cyclopropylmethyl)-N-[1-(2-pyrimidin-2-yl-1,2,4-triazol-3-yl)ethyl]-5-(trifluoromethyl)benzamide]	≥ 80	–	–
